Test results taken from patent US20170253607A1, “LONG-ACTING HIV PROTEASE INHIBITOR” (Shionogi & Co., Ltd., priority 2014, published 2017).

Key:
HIV-1 PR = HIV-1 PR (Human immunodeficiency virus type 1 group M subtype B, UniProt P04585); experiment: HIV-protease inhibitory activity assay (FRET peptide substrate); type: biochemical; details: Test Example 1
Outline: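 Inhibition of HIV-1 protease was measured as loss of fluorescence dequenching of a HiLyte Fluor 488/QXL 520 peptide at 2 μmol/L, pH 4.8, room temperature, 60 minute reaction. IC50 was derived by nonlinear four-parameter fitting.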

[1] = Evaluation of total body clearance (CLtot), intravenous administration; type: in vivo, Sprague-Dawley (SD); details: rat (SD), intravenous administration 0.5-10 mg/kg; CLtot = dose/AUC
Outline: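 Plasma levels quantified by LC/MS/MS after intravenous tail-vein dosing (0.5-10 mg/kg, compound-dependent; n=2-3). AUC from pharmacokinetic analysis; total clearance calculated as dose/AUC.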

SMILES | IC50 (HIV-1 PR) [nM] | rat_CLt [1] [mL/min/kg]
COc1ccc(S(=O)(=O)N(CC(C)C)CC(O)C(Cc2ccc(N3CCC(Oc4cc(N(C)C)ccc4-c4sc5c(c4C(=O)O)CC(C)(C)CC5)C3)cc2)NC(=O)OC2COC3(C)OCCC23)cc1 (stereo not drawn) [Compound I-606] | 2.25 | 2.2
COc1ccc(S(=O)(=O)N(CC(C)C)CC(O)C(Cc2ccc(NCc3nc(N4CCCC4)sc3-c3sc4c(c3C(=O)O)CC(C)(C)CC4)cc2)NC(=O)OC2COC3(C)OCCC23)cc1 (stereo not drawn) [Compound I-607] | 1.8 | 0.797
CC1(C)CCc2sc(NC(=O)c3ccccc3CNc3ccc(CC(NC(=O)OC4COC5(C)OCCC45)C(O)CN(CC4CCC4)S(=O)(=O)c4ccc5c(c4)OCO5)cc3)c(C(=O)O)c2C1 (stereo not drawn) [Compound I-613] | 2.55 | 0.0573
COc1ccc(S(=O)(=O)N(CC(C)C)CC(O)C(Cc2ccc(NCC3CCCCC3C(=O)Nc3sc4c(c3C(=O)O)CC(C)(C)CC4)cc2)NC(=O)OC2COC3(C)OCCC23)cc1 (stereo not drawn) [Compound I-614] | 2.91 | 0.146
CC1(C)CCc2sc(NC(=O)c3ccccc3CNc3ccc(CC(NC(=O)OC4COC5(C)OCCC45)C(O)CN(CC4CCC4)S(=O)(=O)c4ccc5ncsc5c4)cc3)c(C(=O)O)c2C1 (stereo not drawn) [Compound I-617] | 3.13 | 0.098
COc1ccc(S(=O)(=O)N(CC(C)C)CC(O)C(Cc2ccc(NCc3cc(F)ccc3C(=O)Nc3sc4c(c3C(=O)O)CC(C)(C)CC4)cc2)NC(=O)OC2COC3(C)OCCC23)cc1 (stereo not drawn) [Compound I-625] | 5.07 | 0.0688
CN(Cc1ccccc1C(=O)Nc1sc2c(c1C(=O)O)CC(C)(C)CC2)c1ccc(CC(NC(=O)OC2COC3(C)OCCC23)C(O)CN(CC2CCCC2)S(=O)(=O)c2ccc3ncsc3c2)cc1 (stereo not drawn) [Compound I-636] | 4.37 | 0.372
COc1ccc(S(=O)(=O)N(CC(C)C)CC(O)C(Cc2ccc(NCc3cnc4sccc4c3-c3sc4c(c3C(=O)O)CC(C)(C)CC4)cc2)NC(=O)OC2COC3(C)OCCC23)cc1 (stereo not drawn) [Compound I-648] | 2.31 | 0.783
COc1ccc(S(=O)(=O)N(CC(C)C)CC(O)C(Cc2ccc(NCc3cc4ccsc4nc3-c3sc4c(c3C(=O)O)CC(C)(C)CC4)cc2)NC(=O)OC2COC3(C)OCCC23)cc1 (stereo not drawn) [Compound I-649] | 2.25 | 0.622
COc1ccc(S(=O)(=O)N(CC(C)C)CC(O)C(Cc2ccc(NCc3cc4c(cc3-c3sc5c(c3C(=O)O)CC(C)(C)CC5)OCCO4)cc2)NC(=O)OC2COC3(C)OCCC23)cc1 (stereo not drawn) [Compound I-651] | 2 | 0.536
COc1ccc(S(=O)(=O)N(CC(C)C)CC(O)C(Cc2ccc(NCc3cc4ccccc4nc3-c3sc4c(c3C(=O)O)CC(C)(C)CC4)cc2)NC(=O)OC2COC3(C)OCCC23)cc1 (stereo not drawn) [Compound I-652] | 2.46 | 0.641
COc1ccc(S(=O)(=O)N(CC(C)C)CC(O)C(Cc2ccc(NCC3=C(c4sc5c(c4C(=O)O)CC(C)(C)CC5)CC(C)(C)C3)cc2)NC(=O)OC2COC3(C)OCCC23)cc1 (stereo not drawn) [Compound I-662] | 2.51 | 1.11
COc1ccc(S(=O)(=O)N(CC(C)C)CC(O)C(Cc2ccc(NCc3cc(-n4ccccc4=O)ccc3-c3sc4c(c3C(=O)O)CC(C)(C)CC4)cc2)NC(=O)OC2COC3(C)OCCC23)cc1 (stereo not drawn) [Compound I-664] | 1.86 | 1.5
COc1ccc(S(=O)(=O)N(CC(C)C)CC(O)C(Cc2ccc(N3CCC(Cc4ccccc4-c4sc5c(c4C(=O)O)CC(C)(C)CC5)CC3)cc2)NC(=O)OC2COC3(C)OCCC23)cc1 (stereo not drawn) [Compound I-666] | 4.7 | 0.668
C=CCNc1ccc(-c2sc3c(c2C(=O)O)CC(C)(C)CC3)c(CNc2ccc(CC(NC(=O)OC3COC4(C)OCCC34)C(O)CN(CC(C)C)S(=O)(=O)c3ccc(OC)cc3)cc2)c1 (stereo not drawn) [Compound I-676] | 2.42 | 0.145
COc1ccc(S(=O)(=O)N(CC(C)C)CC(O)C(Cc2ccc(NCc3cc(N4CCOCC4)ccc3-c3sc4c(c3C(=O)O)CC(C)(C)CC4)cc2)NC(=O)OC2COC3(C)OCCC23)cc1 (stereo not drawn) [Compound I-679] | 2.82 | 1.65
COc1ccc(S(=O)(=O)N(CC(C)C)CC(O)C(Cc2ccc(NCc3cc(N4CCN(C)CC4)ccc3-c3sc4c(c3C(=O)O)CC(C)(C)CC4)cc2)NC(=O)OC2COC3(C)OCCC23)cc1 (stereo not drawn) [Compound I-680] | 2.1 | 2.77
COc1ccc(S(=O)(=O)N(CC(C)C)CC(O)C(Cc2ccc(NCc3cc(N4CCCCC4)ccc3-c3sc4c(c3C(=O)O)CC(C)(C)CC4)cc2)NC(=O)OC2COC3(C)OCCC23)cc1 (stereo not drawn) [Compound I-689] | 2.01 | 0.385

SMILES | IC50 (HIV-1 PR) [nM] | rat_CLt [1] [mL/min/kg]
COc1ccc(S(=O)(=O)N(CC(C)C)CC(O)C(Cc2ccc(NCc3cc(N4CCC4)ccc3-c3sc4c(c3C(=O)O)CC(C)(C)CC4)cc2)NC(=O)OC2COC3(C)OCCC23)cc1 (stereo not drawn) [Compound I-693] | 3.3 | 0.247
COc1ccc(S(=O)(=O)N(CC(C)C)CC(O)C(Cc2ccc(N(C)Cc3cc(N4CCN(C)CC4)ccc3-c3sc4c(c3C(=O)O)CC(C)(C)CC4)cc2)NC(=O)OC2COC3(C)OCCC23)cc1 (stereo not drawn) [Compound I-701] | 1.49 | 2.71
COc1ccc(S(=O)(=O)N(CC(C)C)CC(O)C(Cc2ccc(N(C)Cc3cc4c(cc3-c3sc5c(c3C(=O)O)CC(C)(C)CC5)OCCO4)cc2)NC(=O)OC2COC3(C)OCCC23)cc1 (stereo not drawn) [Compound I-704] | 2.39 | 0.724
COc1ccc(S(=O)(=O)N(CC(C)C)CC(O)C(Cc2ccc(NCc3nc(N4CCCC4)sc3-c3ccc(-c4sc5c(c4C(=O)O)CC(C)(C)CC5)cc3)cc2)NC(=O)OC2COC3(C)OCCC23)cc1 (stereo not drawn) [Compound I-714] | 4.5 | 0.0783
COc1ccc(S(=O)(=O)N(CC(C)C)C[C@@H](O)[C@H](Cc2ccc(NCc3cc(-c4ccc(N(C)C)cc4)ccc3-c3sc4c(c3C(=O)O)CC(C)(C)CC4)cc2)NC(=O)O[C@H]2CO[C@@]3(C)OCC[C@@H]23)cc1 [Compound I-720] | 2.42 | 0.0677
COc1ccc(S(=O)(=O)N(CC(C)C)CC(O)C(Cc2ccc(NCc3cc(C4=CCCCC4)ccc3-c3sc4c(c3C(=O)O)CC(C)(C)CC4)cc2)NC(=O)OC2COC3(C)OCCC23)cc1 (stereo not drawn) [Compound I-727] | 3.38 | 0.0528
COc1ccc(S(=O)(=O)N(CC(C)C)CC(O)C(Cc2ccc(NCc3ccc(N4CCCC4=O)cc3-c3sc4c(c3C(=O)O)CC(C)(C)CC4)cc2)NC(=O)OC2COC3(C)OCCC23)cc1 (stereo not drawn) [Compound I-742] | 2.08 | 5.03
COc1ccc(S(=O)(=O)N(CC(C)C)CC(O)C(Cc2ccc(NCc3ccccc3-c3sc4c(c3C(=O)O)CC(C)(C)CC4)cc2)NC(=O)OC2COC3OCCC23)cc1 (stereo not drawn) [Compound I-852] | 1.99 | 2.25
COc1ccc(S(=O)(=O)N(CC2CCCC2)CC(O)C(Cc2ccc(NCc3ccccc3C(=O)Nc3sc4c(c3C(=O)O)CC(C)(C)CC4)cc2)NC(=O)OC2COC3OCCC23)cc1 (stereo not drawn) [Compound I-857] | 3.41 | 0.132
CC1(C)CCc2sc(NC(=O)c3ccccc3CNc3ccc(CC(NC(=O)OC4COC5OCCC45)C(O)CN(CC4CCCC4)S(=O)(=O)c4ccc5c(c4)OCO5)cc3)c(C(=O)O)c2C1 (stereo not drawn) [Compound I-858] | 4.23 | 0.142
CC1(C)CCc2sc(NC(=O)c3ccccc3CNc3ccc(CC(NC(=O)OC4COC5OCCC45)C(O)CN(CC4CCCC4)S(=O)(=O)c4ccc5ncsc5c4)cc3)c(C(=O)O)c2C1 (stereo not drawn) [Compound I-859] | 3.41 | 0.2
COc1ccc(S(=O)(=O)N(CC2CCC2)CC(O)C(Cc2ccc(NCc3ccccc3C(=O)Nc3sc4c(c3C(=O)O)CC(C)(C)CC4)cc2)NC(=O)OC2COC3OCCC23)cc1 (stereo not drawn) [Compound I-860] | 3.56 | 0.0981
CC1(C)CCc2sc(NC(=O)c3ccccc3CNc3ccc(CC(NC(=O)OC4COC5OCCC45)C(O)CN(CC4CCC4)S(=O)(=O)c4ccc5c(c4)OCO5)cc3)c(C(=O)O)c2C1 (stereo not drawn) [Compound I-861] | 2.8 | 0.0804
CC1(C)CCc2sc(NC(=O)c3ccccc3CNc3ccc(CC(NC(=O)OC4COC5OCCC45)C(O)CN(CC4CCC4)S(=O)(=O)c4ccc5ncsc5c4)cc3)c(C(=O)O)c2C1 (stereo not drawn) [Compound I-862] | 2.61 | 0.14
COc1ccc(S(=O)(=O)N(CC2CCC2)CC(O)C(Cc2ccc(NCc3cc(C(F)(F)F)ccc3-c3sc4c(c3C(=O)O)CC(C)(C)CC4)cc2)NC(=O)OC2COC3OCCC23)cc1 (stereo not drawn) [Compound I-869] | 6.45 | 1.15
COc1ccc(S(=O)(=O)N(CC(C)C)CC(O)C(Cc2ccc(NCC3CCCC3c3sc4c(c3C(=O)O)CC(C)(C)CC4)cc2)NC(=O)OC2COC3OCCC23)cc1 (stereo not drawn) [Compound I-877] | 2.12 | 2.31
COc1ccc(S(=O)(=O)N(CC(C)C)CC(O)C(Cc2ccc(NCc3ncccc3C(=O)Nc3sc4c(c3C(=O)O)CC(C)(C)CC4)cc2)NC(=O)OC2COC3OCCC23)cc1 (stereo not drawn) [Compound I-882] | 2.28 | 0.26
COc1ccc(S(=O)(=O)N(CC(C)C)CC(O)C(Cc2ccc(NCc3ccccc3-c3sc4c(c3C(=O)O)CC(C)(C)CC4)cc2)NC(=O)OC2COC3(C)OCCC23O)cc1 (stereo not drawn) [Compound I-890] | 1.74 | 0.652
